In patent US10966962B2, “Method for treating neurodegenerative diseases” (THE BOARD OF TRUSTEES OF THE LELAND STANFORD JUNIOR …, priority 2014, dated 2021):

Tests used:
[1] = test system: Ppargc1a pathway in the brain
Procedure: To induce symptoms of PD, MPTP (20 mg/kg) was administered intraperitoneally in sterile PBS 4 times at 2-hour intervals on day 1. […] Log-rank test was used for statistical analysis.
Ppargc1a, an inducer of mitochondrial biogenesis, is widely expressed in cells throughout the body.
For gene expression studies, animals were sacrificed on Day 4, 24 hours after the 3rd oral dosage of ZLN005, and PBS-perfused brain tissues were processed for RNA isolation, cDNA synthesis, and real-time quantitative PCR (Invitrogen). […] Unpaired t-tests were used for statistical analyses.

[2] = test system: CD115+CD11b+blood monocytes; assay: Systemic inflammation in ALS transgenic animals (blood monocytes, serum TNF-α ELISA); format: in vivo, mice; settings: 25 mg/kg orally 3 times a week for 8 weeks
Procedure: ALS transgenic animals were orally treated 3 times a week for 8 weeks with 0.5% methylcellulose or ZLN005 (Sigma) at 25 mg/kg in 0.5% methylcellulose, starting at 5 weeks of age. For measuring the frequency of CD115+CD11b+blood monocytes, ALS-Ctrl transgenic animals (n=10), ALS-ZLN (n=10), and WT animal (n=10) were sacrificed at 13 weeks of age. The Y-axis in FIGS. 21A and 21B represents % of total monocytes and % of Ly6C+ inflammatory monocytes among circulating immune cells.

CC(C)(C)c1ccc(-c2nc3ccccc3[nH]2)cc1 [ZLN005, 2-(4-tert-butylphenyl)-1H-benzimidazole]
expression of genes involved in Ppargc1a signaling (Pgc1a), mitochondrial genes (Tfam, Nrf2, Ucp3) and anti-oxidative stress genes (Ant, Sod1, Sod2) in the brain ([1]; MPTP-treated animals, 25 mg/kg orally once a day for 3 days, Day 4): increases expression of genes
upregulation of tyrosine hydroxylase (Th) ([1]; brain of MPTP-treated animals, 25 mg/kg orally once a day for 3 days, Day 4): 15%
blood-brain barrier penetration ([1]; mouse, in vivo, po, 25 mg/kg): penetrated the blood-brain barrier
% of Ly6C+ inflammatory monocytes among circulating immune cells ([2]; 13 weeks of age): decreased
% of total monocytes among circulating immune cells ([2]; 13 weeks of age): decreased
serum levels of TNF-α ([2]; ELISA): significantly suppressed
